Data on 31 molecules can be found in patent publication US20180251431A1 (VERTEX PHARMACEUTICALS INCORPORATED, priority 2016, published 2018).

For one assay, the system named is HEK293 cells. As to the kind of experiment: HEK293 VLCFA-LPC IC50 determination (13C-labeled C26:0 LPC by UHPLC/MS). It counts as cell-based, human. The following applies: Homo sapiens, HEK293, 48 h, average of one or more replicates; 13C-labeled C26:0 LPC, 48 hours; read-out: Average HEK293 IC50. The procedure: HEK293 cells were treated with compounds, such as those listed in Tables A-E of Example 1, using the representative manual protocols described below. The protocols below were also adapted to a semi-automated protocol using standard methods in the art.
Cell Culture Growth Conditions:
HEK293 cells were maintained in FreeStyle F17 media (Gibco # A13835) supplemented with PenStrep (1%, Gibco #15070-063), Glutamax (2%, Gibco #35050-061), and Pluronic (0.1%, Gibco #24040-032) (“supplemented media”). Suspension cultures were grown in disposable Erlenmeyer flasks at about 120 rpm, 37° C., 5% CO2, and 80% humidity. Cell densities were kept between about 0.5 and 3 million cells per mL, in about 50-200 mL per flask.
Treatment of Cells with Compounds Provided Herein:
The cells were treated with compounds using either a total of 900 uL cell media volume (high-volume assay) or a total of 200 uL cell media volume (low-volume assay). In the high volume assay, 450 μL of supplemented media plus 13C-acetate (1.0 mg/mL, Sigma Aldrich #282014) were added to 0.5 μL of a compound (such as those in Tables A-E) in DMSO in a polypropylene v-bottom plate (Costar #3363) in 1 of 3 dilution schemes. The contents of each well were mixed and transferred to a sterile polypropylene deep-well v-bottom plate (Costar #3960). 450 μL of cultured HEK293 cells in supplemented media at a density of 1.0 million cells/mL was added to each well. In the low volume assay, 100 μL of supplemented media plus 13C-acetate (1.0 mg/mL, Sigma Aldrich #282014) were added to either 0.1 μL or 1.0 uL of a compound (such as those in Tables A-E) in DMSO in a polypropylene v-bottom plate (Costar #3363) in 1 of 3 dilution schemes. 100 μL of cultured HEK293 cells in supplemented media at a density of 1.0 million cells/mL was added to each well. The high volume and low volume plates were sealed with either AirPore Tape Sheets (Qiagen #19571) or Duetz plate covers to control evaporation and placed into a shaking incubator at 225 rpm, 37° C., 5% CO2, and 80% humidity for 48 hours. For both the high and low volume assays the 3 dilution schemes used were as follows:
Following incubation, treated cells were harvested by centrifugation at 1690×g for 10 minutes. In the high volume assay 200 uL treated cells were transferred to a polypropylene v-bottom plate (Costar #3363) prior to centrifugation. In the low volume assay the incubation plate was centrifuged directly, without a transfer step. The supernatant was then discarded and the analytes were extracted using 1 of 2 different extraction schemes. In the first scheme, the cell pellet was visibly broken up by mixing the cell pellet up and down in 100 μL of hexane/isopropanol (60:40) 20 times. The resulting mixture was transferred to a 0.45 μm Durapore membrane (Millipore #MSH VN4510) atop a polypropylene v-bottom plate (Costar #3363) and filtered by centrifugation at 1690×g for 5 minutes. 120 μL of n-butanol containing 10 nM C13:0 lysophosphatidylcholine was added to the filtrate as an injection control standard, then the entire volume was transferred to a new Durapore membrane/v-bottom plate. In the second scheme, the cell pellet was visibly broken up by mixing the cell pellet up and down in 180 μL of methanol containing 10 nM C13:0 lysophosphatidylcholine 20 times. The resulting mixture was transferred to a 0.45 μm Durapore membrane (Millipore #MSH VN4510) atop a polypropylene v-bottom plate and filtered by centrifugation at 1690×g for 5 minutes. In both schemes, the plates were then sealed with pierceable capmats (Micronic MP53017) and stored at −20 OC until analyzed.
UHPLC/Mass Spectrometry Readout:
The filtered organic extraction was analyzed with a 1290 Agilent Infinity Series UHPLC coupled to an ABI Sciex QTrap 6500 mass spectrometer. […]
Turning to `O=C(Nc1ccn(-c2cncc(F)c2)n1)[C@]1(c2ncccc2F)CC12CC2` (single isomer, unassigned) [Compound 499], the 50% inhibitory concentration (IC50) (in general, the concentration that inhibits the measured activity by half) came out at 740 nM.
Still for that read-out and setting: as for `O=C(Nc1nn(-c2cncc(F)c2)cc1F)C1(c2ccccc2)CC1` [Compound 445, N-[4-fluoro-1-(5-fluoro-3-pyridyl)pyrazol-3-yl]-1-phenyl-cyclopropanecarboxamide], the figure is 1400 nM.
`COc1cc(-n2ccc(NC(=O)C3(c4ccccc4F)CC3)n2)ncn1` [Compound 358, 1-(2-fluorophenyl)-N-(1-(6-methoxypyrimidin-4-yl)-1H-pyrazol-3-yl)cyclopropane-1-carboxamide]: the concentration for half-maximal inhibition (IC50) was more than 5000 nM.
Turning to `Cc1csc(-n2ccc(NC(=O)C3(c4ccccc4F)CC3)n2)n1` [Compound 374, 1-(2-fluorophenyl)-N-(1-(4-methylthiazol-2-yl)-1H-pyrazol-3-yl)cyclopropane-1-carboxamide], the IC50 came out at 470 nM.

The same assay, now with this note: Homo sapiens, HEK293, HEK293 cells; average of one or more replicates; read-out: Average HEK293 IC50.
Turning to `COc1ccncc1-n1ccc(NC(=O)C2(c3ccccc3F)CC2)n1` [Compound 469, 1-(2-fluorophenyl)-N-[1-(4-methoxy-3-pyridyl)pyrazol-3-yl]cyclopropanecarboxamide], the 50% inhibitory concentration (IC50) is more than 2000 nM.
On the same count and under the same terms, the result for `O=C(Nc1ccn(-c2ccnc(F)c2)n1)C1(c2ccccc2)CC(F)(F)C1` [Compound 172, 3,3-difluoro-N-[1-(2-fluoro-4-pyridyl)pyrazol-3-yl]-1-phenyl-cyclobutanecarboxamide] reads 380 nM; that for `O=C(Nc1ccn(-c2ccnc(F)c2)n1)C1(c2cccnc2)CC1` [Compound 222, N-[1-(2-fluoro-4-pyridyl)pyrazol-3-yl]-1-(3-pyridyl)cyclopropanecarboxamide], 2000 nM.
In the case of `O=C(Nc1ccn(-c2ccncc2)n1)C1(c2ccc(F)cn2)CC1` [Compound 489, 1-(5-fluoro-2-pyridyl)-N-[1-(4-pyridyl)pyrazol-3-yl]cyclopropanecarboxamide], the IC50 was found to be 1500 nM.
Turning to `O=C(Nc1ccn(-c2cncc(F)c2)n1)C1(c2ncccc2F)CC12CC2` (racemic) [Compound 473, 1-(3-fluoropyridin-2-yl)-N-(1-(5-fluoropyridin-3-yl)-1H-pyrazol-3-yl)spiro[2.2]pentane-1-carboxamide], the IC50 is 430 nM.
As to `O=C(Nc1ccn(-c2cc(F)cc(F)c2)n1)C1(c2ccc(F)cn2)CC1` [Compound 487, N-[1-(3,5-difluorophenyl)pyrazol-3-yl]-1-(5-fluoro-2-pyridyl)cyclopropanecarboxamide], the IC50 amounted to 1200 nM.
On the same count and under the same terms, as for `COc1cc(-n2ccc(NC(=O)C3(c4ccccc4F)CC3)n2)ccn1` [Compound 259, 1-(2-fluorophenyl)-N-(1-(2-methoxypyridin-4-yl)-1H-pyrazol-3-yl)cyclopropane-1-carboxamide], the figure is 51 nM; as for `O=C(Nc1ccn(-c2ccnc(F)c2)n1)C1(c2cccc(Cl)c2)CC1` [Compound 256, 1-(3-chlorophenyl)-N-[1-(2-fluoro-4-pyridyl)pyrazol-3-yl]cyclopropanecarboxamide], 300 nM.
On the same count and under the same terms, the result for `O=C(Cc1cccs1)Nc1ccn(-c2ccccc2)n1` [Compound 37, N-(1-phenylpyrazol-3-yl)-2-(2-thienyl)acetamide] reads 64 nM; that for `O=C(Cc1ccc(F)cc1)Nc1ccn(-c2ccncc2)n1` [Compound 102, 2-(4-fluorophenyl)-N-[1-(4-pyridyl)pyrazol-3-y]+acetamide], 3600 nM.
On to `Cc1ccccc1C1(C(=O)Nc2ccn(-c3ccnc(F)c3)n2)CC1` [Compound 252, N-[1-(2-fluoro-4-pyridyl)pyrazol-3-yl]-1-(o-tolyl)cyclopropanecarboxamide], for which the half-maximal inhibitory concentration (IC50) is 400 nM.
The same measure, in the same setting: the result for `O=C(Cc1ccc(F)c(F)c1)Nc1ccn(-c2ccccc2)n1` [Compound 57, 2-(3,4-difluorophenyl)-N-(1-phenylpyrazol-3-yl)acetamide] reads more than 5000 nM; that for `O=C(Nc1ccn(-c2cnc(Cl)s2)n1)C1(c2ccccc2F)CC1` [Compound 410, N-[1-(2-chlorothiazol-5-yl)pyrazol-3-yl]-1-(2-fluorophenyl)cyclopropanecarboxamide], 100 nM.
Turning to `O=C(Nc1ccn(-c2cncnc2)n1)C1(c2ncccc2F)CC1` [Compound 459, 1-(3-fluoro-2-pyridyl)-N-(1-pyrimidin-5-ylpyrazol-3-yl)cyclopropanecarboxamide], the half-inhibitory concentration (IC50) worked out at 920 nM.
In the case of `O=C(Cc1ccccc1)Nc1ccn(-c2ccnc(C(F)(F)F)c2)n1` [Compound 123, 2-phenyl-N-[1-[2-(trifluoromethyl)-4-pyridyl]pyrazol-3-yl]acetamide], the half-inhibitory concentration (IC50) came to 1500 nM.
Consider `O=C(Nc1ccn(-c2ccnc(F)c2)n1)C1(c2ccc(Cl)cc2)CC1` [Compound 257, 1-(4-chlorophenyl)-N-[1-(2-fluoro-4-pyridyl)pyrazol-3-yl]cyclopropanecarboxamide], for which the IC50 was 340 nM.
The same measure, in the same setting: as for `CCC1(C)CC1(C(=O)Nc1ccn(-c2ccccc2)n1)c1ccccc1` (stereo not shown) [Compound 166, 2-ethyl-2-methyl-1-phenyl-N-(1-phenylpyrazol-3-yl)cyclopropanecarboxamide], the figure is 630 nM; as for `O=C(Nc1ccn(-c2cccc(F)c2)n1)C1(c2ccccc2F)CC1` [Compound 124, 1-(2-fluorophenyl)-N-[1-(3-fluorophenyl)pyrazol-3-yl]cyclopropanecarboxamide], 41 nM; as for `O=C(Cc1ccccc1F)Nc1ccn(-c2cncc(F)c2)n1` [Compound 204, 2-(2-fluorophenyl)-N-[1-(5-fluoro-3-pyridyl)pyrazol-3-yl]acetamide], 97 nM.
As for `CC1(C)CC1(C(=O)Nc1ccn(-c2ccccc2)n1)c1ccccc1` (stereo not shown) [Compound 136, 2,2-dimethyl-1-phenyl-N-(1-phenylpyrazol-3-yl)cyclopropanecarboxamide], the concentration for half-maximal inhibition (IC50) was 940 nM.
On the same count and under the same terms, as for `O=C(Nc1ccn(-c2ccnnc2)n1)C1(c2ccccc2F)CC1` [Compound 202, 1-(2-fluorophenyl)-N-(1-pyridazin-4-ylpyrazol-3-yl)cyclopropanecarboxamide], the figure is 95 nM; as for `CC(C)c1ccc(CC(=O)Nc2ccn(-c3ccccc3)n2)cc1` [Compound 10, 2-(4-isopropylphenyl)-N-(1-phenylpyrazol-3-yl)acetamide], 4400 nM; as for `Cn1ncnc1-n1ccc(NC(=O)C2(c3ccccc3F)CC2)n1` [Compound 415, 1-(2-fluorophenyl)-N-[1-(2-methyl-1,2,4-triazol-3-yl)pyrazol-3-yl]cyclopropanecarboxamide], 90 nM.
The same measure, in the same setting: the result for `C[C@H](C(=O)Nc1ccn(-c2ccccc2)n1)c1ccccc1` [Compound 20, (2S)-2-phenyl-N-(1-phenylpyrazol-3-yl)propanamide] reads 26 nM.
`O=C(Nc1ccn(-c2cc(F)cc(F)c2)n1)C1(c2cnccn2)CC1` [Compound 493, N-[1-(3,5-difluorophenyl)pyrazol-3-yl]-1-pyrazin-2-yl-cyclopropanecarboxamide]: the IC50 was more than 5000 nM.
`Cc1ccccc1C1(C(=O)Nc2ccn(-c3ccccc3)n2)CC1` [Compound 12, 1-(o-tolyl)-N-(1-phenylpyrazol-3-yl)cyclopropanecarboxamide]: the half-inhibitory concentration (IC50) came out at 130 nM.

The assay is the same for the next values; noted with them: average of one or more replicates; 13C-labeled C26:0 LPC, 48 hours; read-out: Average HEK293 IC50.
For the molecule `O=C(Nc1ccn(-c2cccc(Cl)c2)n1)C1(c2ccccc2)CC1(F)F` (single isomer, unassigned) [Compound 437], the IC50 was determined as 2400 nM.
